The values below come from article PMC3692431, “Anticonvulsant Activity of B2, an Adenosine Analog, on Chemical Convulsant-Induced Seizures” (PLoS ONE, 2013).

Like-named read-outs stand apart in the source and are kept apart here.

By EC50 is commonly meant the concentration giving half of the maximal effect.

Experiment [1] deals with T1, recombinant human adenosine A2A receptor (Homo sapiens, UniProt P29274).
T1 construct: expressed in transfected cells; host or cells: CHO cells (provided by Professor R. B. Su)
T1 sequence (P29274 whole entry): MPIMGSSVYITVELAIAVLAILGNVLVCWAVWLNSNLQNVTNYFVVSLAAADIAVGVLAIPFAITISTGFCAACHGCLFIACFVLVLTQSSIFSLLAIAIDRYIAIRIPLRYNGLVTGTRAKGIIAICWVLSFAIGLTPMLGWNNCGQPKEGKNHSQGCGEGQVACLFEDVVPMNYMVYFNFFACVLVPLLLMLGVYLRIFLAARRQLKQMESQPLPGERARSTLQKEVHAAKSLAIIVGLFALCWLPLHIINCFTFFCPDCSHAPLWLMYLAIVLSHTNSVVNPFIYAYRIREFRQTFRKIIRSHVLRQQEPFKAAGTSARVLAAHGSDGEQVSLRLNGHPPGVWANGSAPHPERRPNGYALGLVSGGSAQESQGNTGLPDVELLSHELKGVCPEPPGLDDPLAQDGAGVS
Briefly: cAMP accumulation assay in CHO cells expressing A2A receptor. In kind it is cell-based. As to conditions: CHO cells expressing human A2A receptors; read-out: EC50, elevation of cAMP levels. How it is done: (§1) Chinese hamster ovary (CHO) cells expressing recombinant human A1/A2A receptors (provided by Professor R. B. Su of the Institute of Pharmacology and Toxicology, Academy of Military Medical Sciences, Beijing, China) were cultured in Dulbecco’s Modified Eagles Medium with the F12 nutrient mixture (DMEM/F12) containing no nucleosides, and with 10% fetal calf serum, penicillin (100 U/ml), streptomycin (100 µg/ml), L-glutamine (2 mM), and Geneticin at 37°C in a 5% CO2/95% atmosphere. The cells used to determine cAMP levels had viability >95%, as assessed by trypan blue exclusion.
(§2) Intracellular cyclic adenosine monophosphate (cAMP) levels were measured using a competitive protein binding method. To measure A1/A2A receptor-mediated accumulation of cAMP, cells were grown as confluent monolayers in 24-well cluster dishes. The cells were washed twice with 2 mL of medium containing 20 mM HEPES that had been prewarmed to 37°C, pH 7.4. The cells were then preincubated for 15 min in 0.4 mL fresh medium containing 30 µM of the cAMP phosphodiesterase inhibitor rolipram. B2 was added in 0.1 mL of medium and incubations continued for 15 min. The reaction was then terminated by removing the supernatant, and cells were lysed with the addition of 500 µl of 0.1 M ice-cold HCl. The cell lysate was centrifuged (4,000×g) at 4°C for 10 min. […] Bound radioactivity was measured by liquid scintillation spectrometry.
On the technique in general: Changes in cAMP serve as a functional read-out for many G protein-coupled receptors.

In experiment [2] the test system is strychnine-induced seizures. Put plainly: Strychnine-induced seizures in mice. It is filed as in vivo. Particulars: strychnine 1.5 mg/kg i.p.; for mortality rate: control 88%; for latency to seizure onset prolonged by: vs control. As to the method: (§3) KA was dissolved in saline and the pH was adjusted to neutrality. The final concentration of KA was 0.7 µg/µl, and the convulsant dose was 1 µl (i.c.v.). […] The selective adenosine receptor antagonist DPCPX or SCH58261 was administered (i.p.) 5 min before administration of B2 or vehicle.
Mice were injected with B2 (1.25, 5, 20 mg/kg), carbamazepine (80 mg/kg) or vehicle 20 min before administration of strychnine (1.5 mg/kg) or 4-AP (13 mg/kg). […] The time of latency to seizure onset and mortality rate were recorded.

The next experiment concerns KA-induced seizures. Briefly: KA-induced seizures in mice. It is filed as in vivo. As to conditions: KA 0.7 µg i.c.v. As to the method: as §3
The left lateral ventricle (0.6 mm posterior, 1.9 mm lateral, and 2.1 mm ventral to bregma) was cannulated as described. After a 7-day recovery period, mice were injected with either B2 (1.25, 5, 20 mg/kg) or vehicle. Twenty minutes later, an intracerebroventricular injection of KA (0.7 µg/µl, 1 µl) was administered without anesthesia. The animals were then observed for a minimum of 60 min. Seizure severity was determined according to the scoring system described by Racine. At the end of the experiment, cannulae placement was verified.

The subject of experiment [3] is picrotoxin-induced seizures. It is filed as in vivo, mice. As to conditions: picrotoxin 3.5 mg/kg; for mortality rate: control 50%; for latency to seizure onset prolonged by / number of seizures reduced by: vs control. As to the method: as §3
The latency of seizure onset, number of seizures, and mortality rate was recorded for the picrotoxin-injected mice. For the PTZ-injected mice, we recorded the latency of seizure onset, number of seizures, and presence of clonic seizures.

Experiment [4] addresses T2, recombinant human adenosine A1 receptor (Homo sapiens, UniProt P30542).
T2 construct: expressed in transfected cells; host or cells: CHO cells (provided by Professor R. B. Su)
T2 sequence (P30542 1-326): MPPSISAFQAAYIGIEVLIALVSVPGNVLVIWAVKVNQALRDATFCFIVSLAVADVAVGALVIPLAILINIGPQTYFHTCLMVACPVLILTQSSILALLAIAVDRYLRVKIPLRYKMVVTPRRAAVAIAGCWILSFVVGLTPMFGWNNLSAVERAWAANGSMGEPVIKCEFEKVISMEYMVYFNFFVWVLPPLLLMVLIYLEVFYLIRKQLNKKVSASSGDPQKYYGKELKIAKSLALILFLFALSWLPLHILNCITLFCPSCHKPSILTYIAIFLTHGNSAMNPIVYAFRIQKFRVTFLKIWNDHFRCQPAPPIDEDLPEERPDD
Briefly: cAMP accumulation assay in CHO cells expressing A1 receptor. In kind it is cell-based. Particulars: CHO cells stably expressing human A1 receptor; forskolin-stimulated cAMP; read-out: EC50, decrease of cellular cAMP level. As to the method: as §1, §2

In experiment [5] the test system is c-Fos expression in the hippocampus. Put plainly: PTZ-induced c-Fos expression, immunohistochemistry. As to conditions: B2 5 mg/kg, PTZ 85 mg/kg, 2 h. In kind it is in vivo, mice. How it is done:
Mice were injected with either B2 (5 mg/kg) or vehicle 20 min before administration of PTZ (85 mg/kg). Two hours later, mice were either anesthetized for c-Fos analysis using immunohistochemistry or decapitated or western blotting.
Mice were anesthetized with chloral hydrate (400 mg/kg, i.p.) and perfused through the heart with saline solution followed by ice-cold 4% paraformaldehyde (PFA) in 0.1 M phosphate buffer (pH 7.4). Their brains were then removed, post-fixed in 4% PFA for 24 h at 4°C, and immersed in 30% sucrose at 4°C until they sank. Thereafter, coronal sections (30 µm) were cut using a freezing microtome (Leica RM2125).
Sections were immunostained using previously described methods. Sections were first immersed in 0.3% Triton X-100 for 10 min at room temperature, and then in 3% hydrogen peroxide for 10 min to quench endogenous peroxidase activity. Sections were then rinsed twice in 10 mM phosphate-buffered saline (pH 7.2) containing 0.3% Triton X-100. This was followed by incubation with diluted normal blocking serum (Vector Elite ABC kit) for 30 min and then 1∶800 rabbit polyclonal anti-c-Fos (primary) antibodies overnight at 4°C. Biotinylated secondary antibody solutions and VectaStain® Elite ABC reagents were applied. The peroxidase reaction was visualized using DAB with nickel ammonium sulfate for black staining. Sections were mounted, dehydrated and cover slipped. […]

Regarding `COc1cc(CNc2ncnc3c2ncn3[C@@H]2O[C@H](CO)[C@@H](O)[C@H]2O)ccc1O` [B2, N^6-(3-methoxyl-4-hydroxybenzyl) adenine riboside], the EC50 in experiment [1] came to 320 nM; in experiment [4], 180 nM. The mortality rate came to 71% in experiment [2] (B2 1.25 mg/kg i.p.); 43% in experiment [2] (B2 5 mg/kg i.p.); 57% in experiment [2] (B2 20 mg/kg i.p.); 25% in experiment [3] (B2 1.25 mg/kg i.p.); 13% in experiment [3] (B2 5 mg/kg i.p.); 25% in experiment [3] (B2 20 mg/kg i.p.). The “latency to seizure onset prolonged by” value is listed as 45% in experiment [2] (B2 1.25 mg/kg i.p.); 88% in experiment [2] (B2 5 mg/kg i.p.); 89% in experiment [2] (B2 20 mg/kg i.p.); 64% in experiment [3] (B2 1.25 mg/kg i.p.); 242% in experiment [3] (B2 5 mg/kg i.p.); 183% in experiment [3] (B2 20 mg/kg i.p.). For the same compound, the average seizure duration in the experiment with KA-induced seizures (B2 1.25 mg/kg i.p.) came to 5.3 ± 0.8 min; with KA-induced seizures (B2 5 mg/kg i.p.), 3.7 ± 0.7 min; in the experiment with KA-induced seizures (B2 20 mg/kg i.p.), 3.3 ± 1.0 min. Moreover, the “number of seizures reduced by” value is 18% in experiment [3] (B2 1.25 mg/kg i.p.), 64% in experiment [3] (B2 5 mg/kg i.p.) and 53% in experiment [3] (B2 20 mg/kg i.p.). The “effect on PTZ-induced increase of c-Fos expression in the CA2/3 region” value in experiment [5] is given as “minor effect”. In addition, the “effect on PTZ-induced increase of c-Fos expression in the dentate gyrus and CA1” value in experiment [5] is “significantly reversed”.
